The values below are quoted from earlier work in patent US11596657B2, “Use of AhR agonist for the preventive or curative treatment of metabolic syndrome and the associated disorders” (INSTITUT NATIONAL DE LA RECHERCHE AGRONOMIQUE, priority 2016, dated 2023).

In series [1] the test system is male C57Bl/6J mice fed a Western diet.
The next series addresses T1, human AhR (Homo sapiens, UniProt P35869).
T1 sequence (P35869 11-848): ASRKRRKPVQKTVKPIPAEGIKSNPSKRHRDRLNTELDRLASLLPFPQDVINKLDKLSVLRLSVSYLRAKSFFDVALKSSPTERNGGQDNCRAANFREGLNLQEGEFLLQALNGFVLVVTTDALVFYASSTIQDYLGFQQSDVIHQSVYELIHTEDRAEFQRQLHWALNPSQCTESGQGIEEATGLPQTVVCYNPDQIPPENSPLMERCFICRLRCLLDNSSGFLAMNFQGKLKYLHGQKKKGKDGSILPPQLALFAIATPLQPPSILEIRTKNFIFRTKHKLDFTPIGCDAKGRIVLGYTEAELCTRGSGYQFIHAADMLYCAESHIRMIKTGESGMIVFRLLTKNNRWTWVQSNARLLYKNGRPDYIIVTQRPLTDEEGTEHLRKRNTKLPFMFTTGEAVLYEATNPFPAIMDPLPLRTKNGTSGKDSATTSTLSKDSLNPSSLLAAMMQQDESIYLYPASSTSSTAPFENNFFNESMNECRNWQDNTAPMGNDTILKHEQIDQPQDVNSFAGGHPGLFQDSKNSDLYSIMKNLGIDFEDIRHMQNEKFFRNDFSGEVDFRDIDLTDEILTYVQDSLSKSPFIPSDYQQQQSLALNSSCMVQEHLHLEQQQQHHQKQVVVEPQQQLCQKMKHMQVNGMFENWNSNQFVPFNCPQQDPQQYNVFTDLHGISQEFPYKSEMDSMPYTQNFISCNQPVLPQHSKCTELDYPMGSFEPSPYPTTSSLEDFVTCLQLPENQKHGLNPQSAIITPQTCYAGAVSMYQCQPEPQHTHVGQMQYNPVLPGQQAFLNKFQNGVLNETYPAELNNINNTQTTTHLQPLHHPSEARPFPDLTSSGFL
As to conditions: potency compared with TCDD.

On to `Cc1ccccc1N=Nc1ccc(NC(=O)c2ccnn2C)c(C)c1` [CH-223191], for which, in series [1], the “obesity, adiposity and liver steatosis” value is “significantly reduce obesity and adiposity and ameliorates liver steatosis”.

Take `Cc1cc(C)c(C=C2C(=O)Nc3ccccc32)[nH]1` [SU5416, 3-(3,5-dimethyl-1H-pyrrol-2-ylmethylene)-1,3-dihydro-indole-2-one]: the “activation of human AhR” value on human AhR is reported as “activates the human AhR with a potency approaching TCDD”.

Turning to `O=c1cc(-c2ccccc2)oc2c1ccc1ccccc12` [α-naphthoflavone], the “obesity, adiposity and liver steatosis” value in series [1] was “significantly reduce obesity and adiposity and ameliorates liver steatosis”.
